The conditions of data set [1]: male, Sprague-Dawley, rat, in vivo.
A further data set is described as follows: in vivo. The note with it: Sprague Dawley, rat.
The conditions of data set [2]: Sprague Dawley, rat, in vivo.
The nature of data set [3]: Repeated oral co-administration of paclitaxel with CsA, plasma levels. The class given is in vivo, rats. The note with it: repeated regimen.
The conditions of data set [4]: Sprague Dawley, rat, in vivo. This is another data set of the same source.
Test in data set [5]: not given
The source holds these as a separate data set.

Test in data set [6]: not given
This is another data set of the same source.

The conditions of data set [7]: oral; cited from earlier work.
The next data set deals with metastatic breast cancer. The conditions noted are these: continuous 96-hour infusion every three weeks; taxane-failure patients; cited from earlier work.
The conditions of data set [8]: reports in the literature; cited from earlier work.
Data set [9] is described as follows: 3H-etoposide IV, oral, oral with cyclosporin in rats, whole blood radioactivity (Example 6, NP960102). It is filed as in vivo.
For data set [10] the following is noted: etoposide capsules; cited from earlier work.
Where [11] appears, read: oral 3H-paclitaxel 9 mg/kg, cyclosporin dose 2 × 5 mg/kg oral.
Setting [12] is: radioactivity of oral 3H-paclitaxel 9 mg/kg, cyclosporin dose 2 × 5 mg/kg oral.
Where [13] appears, read: Sprague Dawley, rat, in vivo, po.
The mark [14] stands for this setting: Sprague Dawley, rat, in vivo, po, 9 mg/kg.
Setting [15] is: total radioactivity, Paclitaxel IV 9 mg/kg.
[16] abbreviates: Grp C, etoposide 1/PO with CsA 5/PO before and with.

Where two headings read alike, the source gives them in different places.

One may read the t½ as how long it takes for the measured level to halve. For the compound `OCCN(CCO)c1nc(N2CCCCC2)c2nc(N(CCO)CCO)nc(N3CCCCC3)c2n1` [Dipyridamole, dipyridamole], the t½ in data set [1] amounted to 26.6 h.

Turning to `CC(=O)O[C@]1(C(C)=O)CC[C@H]2[C@@H]3C=C(C)C4=CC(=O)CC[C@]4(C)[C@H]3CC[C@@]21C` [Magace, megestrol acetate], the t½ in data set [1] was 23.1 h.

With `C/C=C/C[C@@H](C)[C@@H](O)[C@H]1C(=O)N[C@@H]([C@@H](C)O)C(=O)N(C)CC(=O)N(C)[C@@H](CC(C)C)C(=O)N[C@@H](C(C)C)C(=O)N(C)[C@@H](CC(C)C)C(=O)N[C@@H](C)C(=O)N[C@H](C)C(=O)N(C)[C@@H](CC(C)C)C(=O)N(C)[C@@H](CC(C)C)C(=O)N(C)[C@@H](C(C)C)C(=O)N1C` [Cyclosporin C, cyclosporin C], the “% Absorption” value under setting [11] amounted to 34.5%. For the same compound, the AUC0-24 under setting [12] is 11.39 μg eq. hr/ml.

Regarding “dihydro cyclosporin C [Cyclosporin Dihydro C]”, the “% Absorption” value under setting [11] turned out to be 45.1%. The AUC0-24 under setting [12] is recorded as 13.09 μg eq. hr/ml.

Consider `CCCC[C@@H](C)[C@@H](O)[C@H]1C(=O)N[C@@H](CC)C(=O)N(C)CC(=O)N(C)[C@@H](CC(C)C)C(=O)N[C@@H](C(C)C)C(=O)N(C)[C@@H](CC(C)C)C(=O)N[C@@H](C)C(=O)N[C@H](C)C(=O)N(C)[C@@H](CC(C)C)C(=O)N(C)[C@@H](CC(C)C)C(=O)N(C)[C@@H](C(C)C)C(=O)N1C` [Cyclosporin Dihydro A, dihydro cyclosporin A], for which the AUC0-24 under setting [12] came to 8.5 μg eq. hr/ml.

In general, bioavailability refers to the share of a dose that reaches the circulation, judged against a reference dose that is usually intravenous. Lower therefore signals little systemic uptake. For orientation: AUC(0-t) means exposure summed from dosing to a finite time, without extrapolation to infinity. In general, Tmax refers to the time at which the peak concentration occurs. `CC(=O)O[C@H]1C(=O)[C@@]2(C)[C@H]([C@H](OC(=O)c3ccccc3)[C@]3(O)C[C@H](OC(=O)[C@H](O)[C@@H](NC(=O)c4ccccc4)c4ccccc4)C(C)=C1C3(C)C)[C@]1(OC(C)=O)CO[C@@H]1C[C@@H]2O` [Paclitaxel, paclitaxel]: the bioavailability in “in vivo” (in vivo, po) is below 1%. This compound also registered an area under the curve AUC(0-t) in the data set “in vivo” (serum, oral, 9 mg/kg) of 80 ng·h/mL. The same compound registered a V in data set [2] (iv) of 4.236 L/kg. For the same compound, in data set [2] (po), the “AUC0-[…]” value worked out at 349 ng·h/mL, the “F %” value was found to be 1.7% and the V was 5.029 L/kg. For the same compound, the “steady state plasma levels of paclitaxel achieved” value in data set [3] is “by the third day”. Further, the “Absolute F” value in data set [4] is on record as 0.9%. In data set [5] (NP951001, paclitaxel only 9/IV), this compound gave an AUC0-24 of 32.04 µg·h/mL. In addition, in data set [5] (NP951001, paclitaxel only 9/PO), the AUC0-24 stood at 3.24 µg·h/mL. The “% Dose in urine (4-24 hr)” value in data set [5] (Sprague Dawley, rat, in vivo, iv) came to 2.2%. In data set [5] (setting [13]), the “% Dose in urine (4-24 hr)” value turned out to be 1.9%, the AUC0-24 is listed as 3.2 μg eq × hr/ml and the Tmax turned out to be 25 h. In addition, in data set [5] (total radioactivity in blood, IV (A)), the AUC0-24 worked out at 32.8 μg eq × hr/ml. In data set [6] (setting [13]), the “F (%) Based on AUC0-00” value is reported as 16.4% and the “F (%) based on AUC0-24 hr” value stood at 5.9%. For the same compound, in data set [6] (setting [14]), the AUC0-00 came out at 4.5 μg equiv. hr/mL and the AUC0-24 hr is given as 1.4 μg equiv. hr/mL. In addition, in [6] (setting [15]), the AUC0-00 came out at 27.4 μg equiv. hr/mL and the AUC0-24 hr is listed as 23.8 μg equiv. hr/mL. Moreover, in [7], the “absorbed when administered orally” value is on record as “less than 1%”. Besides, the response rate in the data set on metastatic breast cancer is recorded as 27%.

For `C/C=C/C[C@@H](C)[C@@H](OC(C)=O)[C@H]1C(=O)N[C@@H](CC)C(=O)N(C)CC(=O)N(C)[C@@H](CC(C)C)C(=O)N[C@@H](C(C)C)C(=O)N(C)[C@@H](CC(C)C)C(=O)N[C@@H](C)C(=O)N[C@H](C)C(=O)N(C)[C@@H](CC(C)C)C(=O)N(C)[C@@H](CC(C)C)C(=O)N(C)[C@@H](C(C)C)C(=O)N1C` [Cyclosporin Acetyl A, acetyl cyclosporin A], the “% Absorption” value under setting [11] was 25.4%. Besides, the AUC0-24 under setting [12] was determined as 8.39 μg eq. hr/ml.

`CC(=O)[C@H]1CC[C@H]2[C@@H]3CCC4=CC(=O)CC[C@]4(C)[C@H]3CC[C@]12C` [Progesterone, progesterone]: the t½ in data set [1] is 20.0 h.

Take `C/C=C/C[C@@H](C)[C@@H](O)[C@H]1C(=O)N[C@@H](CCC)C(=O)N(C)CC(=O)N(C)[C@@H](CC(C)C)C(=O)N[C@@H](C(C)C)C(=O)N(C)[C@@H](CC(C)C)C(=O)N[C@@H](C)C(=O)N[C@H](C)C(=O)N(C)[C@@H](CC(C)C)C(=O)N(C)[C@@H](CC(C)C)C(=O)N(C)[C@@H](C(C)C)C(=O)N1C` [Cyclosporin G, cyclosporin G]: the “% Absorption” value under setting [11] amounted to 40.0%. Besides, under setting [12], the AUC0-24 came out at 13.22 μg eq. hr/ml.

Regarding `C/C=C/C[C@@H](C)C[C@H]1C(=O)N[C@@H](CC)C(=O)N(C)CC(=O)N(C)[C@@H](CC(C)C)C(=O)N[C@@H](C(C)C)C(=O)N(C)[C@@H](CC(C)C)C(=O)N[C@@H](C)C(=O)N[C@H](C)C(=O)N(C)[C@@H](CC(C)C)C(=O)N(C)[C@@H](CC(C)C)C(=O)N(C)[C@@H](C(C)C)C(=O)N1C` [Cyclosporin F, cyclosporin F], the AUC0-24 was found to be 11.99 μg eq. hr/ml (oral 3H-paclitaxel 9 mg/kg, cyclosporin dose 2 × 10 mg/kg oral) and 8.99 μg eq. hr/ml under setting [12]. The “activity in promoting oral absorption of paclitaxel” value (whole blood radioactivity profiles, 5 mg/kg oral before and with paclitaxel 9 mg/kg) was “enhances the oral bioavailability of paclitaxel”. Also, the immunosuppressive activity entry in data set [8] is given as “does not display immunosuppressive activity”.

As to `C/C=C/C[C@@H](C)[C@@H](O)[C@H]1C(=O)N[C@@H](C(C)C)C(=O)N(C)CC(=O)N(C)[C@@H](CC(C)C)C(=O)N[C@@H](C(C)C)C(=O)N(C)[C@@H](CC(C)C)C(=O)N[C@@H](C)C(=O)N[C@H](C)C(=O)N(C)[C@@H](CC(C)C)C(=O)N(C)[C@@H](CC(C)C)C(=O)N(C)[C@@H](C(C)C)C(=O)N1C` [Cyclosporin D, cyclosporin D], in data set [8], the immunosuppressive activity result is “least immunosuppressive activity”.

Regarding `C/C=C/C[C@@H](C)[C@@H](O)[C@H]1C(=O)N[C@@H](CC)C(=O)N(C)CC(=O)N(C)[C@@H](CC(C)C)C(=O)N[C@@H](C(C)C)C(=O)N[C@@H](CC(C)C)C(=O)N[C@@H](C)C(=O)N[C@H](C)C(=O)N(C)[C@@H](CC(C)C)C(=O)N(C)[C@@H](CC(C)C)C(=O)N(C)[C@@H](C(C)C)C(=O)N1C` [Cyclosporin U, cyclosporin U], under setting [11], the “% Absorption” value worked out at 15.2%. Under setting [12], the AUC0-24 was 5.02 μg eq. hr/ml.

In the case of `COc1cc([C@@H]2c3cc4c(cc3[C@@H](O[C@@H]3O[C@@H]5CO[C@@H](C)O[C@H]5[C@H](O)[C@H]3O)[C@H]3COC(=O)[C@H]23)OCO4)cc(OC)c1O` [Etoposide, etoposide], the Cmax was 2.16 ug*eq/mL in [9] (Grp A, etoposide only 1/IV); 0.03 ug*eq/mL in [9] (Grp B, etoposide only 1/PO); 0.12 ug*eq/mL in [9] (setting [16]). Also, the t½ in [9] (Grp A, etoposide only 1/IV) was 26.5 h; in [9] (Grp B, etoposide only 1/PO), 19.1 h; in [9] (setting [16]), 18.1 h. Besides, the AUC0-24 in [9] (Grp A, etoposide only 1/IV, total radioactivity) stood at 1080 ng·h/mL; in data set [9] (Grp B, etoposide only 1/PO) it was 610 ng·h/mL; in data set [9] (setting [16]), 1040 ng·h/mL. In addition, the F % in data set [9] (Grp B, etoposide only 1/PO) is recorded as 56.5%; in [9] (setting [16]) it was 96.3%; in data set [9] (Grp C, etoposide 1/PO with CsA 5/PO before and with, listed as etoposide), “about 96%”. In data set [10], the “mean value of oral bioavailability” value is “approximately 50%”.

In the case of `CC(=O)N1CCN(c2ccc(OCC3COC(Cn4ccnc4)(c4ccc(Cl)cc4Cl)O3)cc2)CC1` (centres unmarked) [Ketoconazole, ketoconazole], in [1], the t½ was determined as 9.23 h.

Values taken from patent US20050238634A1, “Method, compositions and kits for increasing the oral bioavailability of pharmaceutical agents” (Baker Norton Pharmaceuticals, Inc., priority 1995, published 2005).
